Results published in patent US10421971B2, “Anti-tumor therapy” (The University of Chicago, priority 2014, dated 2019).

Tests used:
IFNβ promoter = IFNβ promoter dual-luciferase reporter assay (IFNβ-Luc / pRL-SV40) in HEK293 cells; format: cell-based, human; settings: versus shNT, FIG. 6A
Description: To measure IFNβ promoter activity, HEK293 cells were transiently co-transfected using Fugene (Roche) with pGL3-Ifnβ-Luc (Lin R, Genin P, Mamane Y, & Hiscott J (2000) Selective DNA binding and association with the CREB binding protein coactivator contribute to differential activation of alpha/beta interferon genes by interferon regulatory factors 3 and 7. Molecular and cellular biology 20(17):6342-6353) and an expression plasmid carrying the Renilla luciferase gene driven by the SV40 promoter (Promega). […] The following day, cells were irradiated at indicated dose and collected at indicated time in passive lysis buffer (Promega). Firefly and Renilla luciferase activities were measured using a dual-luciferase assay system (Promega). For siRNAs experiments, siRNA against LGP2 (see above) or non-targeting (Dharmacon) were transfected with RNAimax 24 h prior to transfection of luciferase/Renilla plasmids. Mean luciferase values were normalized and quantified from duplicate runs for each of at least three separate experiments.
We next assessed the role of LGP2 in regulating the IR-induced IFNβ response. HEK293 cells were transduced with lentiviral shRNA to stably reduce the levels of LGP2 or control non-targeting (shNT). Stably transduced cells were co-transfected with IFNβ-Luc and pRL-SV40, mock-treated or exposed to 6 or 12 Gy and collected 72 hrs after IR.

BMDCs = assay: BMDC cross-priming of 2C CD8+ T cells after stimulation with irradiated MC38-SIY tumor cells (IFN-γ ELISPOT); format: cell-based, mouse
Description: Single-cell suspensions of bone marrow cells were obtained from C57BL/6J, STING^−/− and IRF3^−/− mice. Bone marrow from cGAS^−/− mice was kindly provided by Dr. Zhijian J. Chen of University of Texas Southwestern Medical Center, Dallas. The cells were placed in 10 cm petri dish and cultured in RPMI-1640 medium containing 10% fetal bovine serum (DENVILLE), supplemented with 20 ng/ml GM-CSF. Fresh media with GM-CSF was added into culture on day 3. BMDCs (bone marrow-derived dendritic cells) were harvest for stimulation assay on day 7. 8×10^6 MC38-SIY^hi cells were plated into 10 cm cell culture dishes overnight, and then pretreated with 40 Gy and incubated for 5 hours. BMDCs were added and co-cultured with MC38-SIY^hi cells at the ratio of 1:1 in the presence of fresh GM-CSF for additional 8 hours. Subsequently purified CD11c cells with EasySep™ Mouse CD11c Positive Selection Kit II (STEMCELL) were incubated with isolated CD8^+ T cells from naive 2 C mice for three days. For the bypassing assay, 10 ng/ml murine IFN-β was added in the co-culture of BMDCs and tumor cells, or 100 μg/ml DMXAA was added into isolated CD11c^+ cells with additional 3 h incubation. For IFN-β detection, BMDCs were co-cultured with tumor cells at the ratio of 1:1 for additional 8 hours, and 1×10^6 cells/ml purified CD11c^+ cells were seed into 96-well plates for 48 hours.
For bone-marrow CD11c^+ cells functional assay, 2×10^4 purified CD11c^+ cells with were incubated with isolated CD8^+ T cells from naive 2 C mice with EasySep™ Mouse CD8a Positive Selection Kit (STEMCELL) for three days at the ratio of 1:10. For tumor-specific CD8^+ T cells functional assay, eight days after radiation, tumor DLNs were removed and CD8^+ T cells were purified. MC38 tumor cells were exposed to 20 ng/ml murine IFN-γ for 24 hr prior to plating with purified CD8^+ T. 2×10^5 CD8^+ T cells were incubated with MC38 at the ratio of 10:1 for 48 hours. 96-well HTS-IP plate (Millipore) was pre-coated with 2.5 μg/ml anti-IFN-γ antibody (clone R4-6A2, BD Pharmingen) overnight at 4° C. […]

[1] = test system: tumor-specific CD8+ T cells; assay: ELISPOT of tumor-specific IFN-γ-secreting CD8+ T cells from tumor draining lymph nodes after radiation; format: in vivo, mouse
Description: (§1) 1×10^6 MC38 tumor cells were subcutaneously injected into the flank of mice. Tumor volumes were measured along three orthogonal axes (a, b, and c) and calculated as tumor volume=abc/2. Tumors were allowed to grow for 9-10 days and treated by local radiation (Deng et al., 2014). Briefly, the body was protected with a lead cover and the tumor was exposed, allowing local radiation. Tumors were irradiated using RS-2000 Biological Irradiator (RAD SOURCE) at the dose of 20 Gy with 160 kV and 25 mA. For type I IFN blockade experiments, 200 μg anti-IFAR1 mAb was intratumorally injected on day 0 and 2 after radiation. For HMGB-1 blockade experiments, 200 μg anti-HMGB-1 mAb (clone 3B1, generated by inventors) was administered i.p. on day 0 and 3 after radiation. For CD8^+ T cell depletion experiments, […] anti-CD8 mAb (Clone 2.43, BioXCell) was delivered 5 times by i.p. injection every three days starting one day before radiation. For exogenous IFN-β treatment experiments, 1×10^10 viral particles of Ad-IFN-β (Burnette, B., et al., The Efficacy of Radiotherapy Relies upon Induction of Type I Interferon-Dependent Innate and Adaptive Immunity, Cancer Res Apr. 1, 2011 71; 2488; (doi: 10.1158/0008-5472.CAN-10-2820)) were intratumorally administered on day 2 after radiation. Ad-null was used as negative control. […]

MC38 tumors = assay: MC38 tumor growth after local radiation in mice; format: in vivo, mouse; settings: 20 Gy, 10 μg intratumorally on day 2 and 6 after radiation, FIG. 21A, 21B
Description: as §1

Q: How did the “IR-induced IFNβ reporter activity” value (IFNβ promoter; HEK293, 6 or 12 Gy, 72 hrs after IR) turn out when “LGP2 shRNA: lentiviral pLKO.1 shRNA against LGP2, SEQ ID NO:3 ATTCTTGCGGTCATCGAACAG, Thermo Scientific” was run?
A: Its value is “greatly increased”.

Q: And the IFNβ reporter activity (IFNβ promoter; HEK293, mock-treated)?
A: The IFNβ reporter activity was “significant increase”.

Q: Which results are given for `Cc1ccc2c(=O)c3cccc(CC(=O)O)c3oc2c1C` [DMXAA]?
A: function of STING−/− BMDCs (cross-priming of CD8+ T cells) (BMDCs; STING−/− BMDCs stimulated with irradiated tumor cells, 10 ng/ml IFN-β or 100 μg/ml DMXAA, FIG. 18C): fails to rescue; function of cGAS−/− BMDCs (cross-priming of CD8+ T cells) (BMDCs; cGAS−/− BMDCs stimulated with irradiated tumor cells, 10 ng/ml IFN-β or 100 μg/ml DMXAA, FIG. 19D): restored

Q: `Nc1nc2c(ncn2[C@@H]2O[C@@H]3COP(=O)(O)O[C@H]4[C@@H](O)[C@H](n5cnc6c(N)ncnc65)O[C@@H]4COP(=O)(O)O[C@@H]2[C@@H]3O)c(=O)[nH]1` [2′3′-cGAMP, cyclic [G(2′,5′)pA(3′,5′)p]] was tested. Which “antitumor CD8+ T cell response induced by the combination with radiation” value ([1]; STING−/− host, FIG. 21D) did it give?
A: Its value is “dampened”.

Q: And the “number of tumor-specific IFN-γ-producing CD8+ T cells in DLNs, combination with radiation” value ([1]; WT mice, 10 μg intratumorally on day 2 after 20 Gy, DLNs day 8, versus radiation or 2′3′-cGAMP alone, FIG. 21C)?
A: Its value is “significantly increased”.

Q: And the “synergy with radiation on tumor burden” value (MC38 tumors; STING−/− mice)?
A: Its value is “abrogated”.

Q: What about the “tumor burden, combination with radiation” value (MC38 tumors; WT mice, versus either treatment alone) of the same compound?
A: Its value is “effectively reduce tumor burden”.

Q: Which “function of DCs (cross-priming of CD8+ T cells)” value (BMDCs; BMDCs transfected with 50 nM siRNA, versus non-target control, stimulated with irradiated tumor cells, FIG. 19B) does the source give for “siRNA-cGAS: Mission siRNA against murine cGAS, 5′-GAGGAAAUCCGCUGAGUCAdTdT-3′ (SEQ ID NO:8), Sigma (GAGGAAAUCCGCUGAGUCADTDT; dTdT 3' overhang, further chemistry not given here)” here?
A: Its value is “greatly diminished”.
